{"source": "patent US11135214B2", "about": "“Methods for enhancing the bio availability and exposure of a voltage-gated potassium channel opener” (priority 2018, dated 2021)", "origin": "cited, not measured here", "key": {"[1]": {"test_system": "neural membrane excitability", "settings": "Ziemann et al. 2015; Ossemann et al. 2016; cited from earlier work"}, "TEP components": {"test_system": "TEP components", "settings": "TMS-EEG, Premoli et al. 2016; cited from earlier work"}, "[2]": {"settings": "FDA Approved Labeling Text for Potiga; Harris and Murphy 2011; cited from earlier work"}, "[3]": {"settings": "Prescott and Evans 2014; cited from earlier work"}}, "data": [{"smiles": "Nc1nnc(-c2cccc(Cl)c2Cl)c(N)n1", "note": "[lamotrigine]", "values": [{"measurement": "motor threshold (at rest and under active muscular contraction)", "setting": "[1]", "value": "increased"}, {"measurement": "P180 component", "setting": "TEP components", "value": "suppressed"}, {"measurement": "amplitude of the N45", "setting": "TEP components", "value": "increased"}]}, {"smiles": "NC(=O)N1c2ccccc2C=Cc2ccccc21", "note": "[carbamazepine]", "values": [{"measurement": "motor threshold (at rest and under active muscular contraction)", "setting": "[1]", "value": "increased"}]}, {"smiles": "CCOC(=O)Nc1ccc(NCc2ccc(F)cc2)cc1N", "note": "[retigabine]", "values": [{"measurement": "food effect on bioavailability and exposure after oral administration", "setting": "[2]", "value": "lack of food effect"}, {"measurement": "motor threshold (at rest and under active muscular contraction)", "setting": "[1]", "value": "increased"}, {"measurement": "black-box warnings after long term use", "setting": "[3]", "value": "discoloration of skin, lips, nails and retinal pigmentary changes"}]}, {"smiles": "CC[C@@H](C(N)=O)N1CCCC1=O", "note": "[levetiracetam]", "values": [{"measurement": "P180 component", "setting": "TEP components", "value": "suppressed"}, {"measurement": "amplitude of the N45", "setting": "TEP components", "value": "increased"}]}]}
